Experimental data published in the supplement of paper PMC9436093.

Key:
Experiment in all cases: cell viability relative to DMSO (100%) and bortezomib (0%) controls; higher = more viable / less sensitive
Conditions in all cases: 72 h
[1] = test system: HAP1 WT + HDAC1 H141A transgene
Experimental: (§1)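 HAP1 cells (wildtype, HDAC1/2/3 catalytically inactive H>A mutant lines in wildtype or knockout background, HDAC3 KO, or wildtype pre-treated 6 h with 1 uM MS-275 or JQ12) were seeded onto compound-containing 384-well plates with an 8-point 1:3 dose series. ATP was read by CellTiter-Glo after 72 h. Viability is normalised to plate DMSO wells (100%) and bortezomib positive-control wells (0%) after outlier removal. Duplicate screen.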

HAP1 HDAC3 KO = test system: HAP1 HDAC3 KO
Experimental: as §1

[2] = test system: HAP1 WT + HDAC2 H142A transgene
Experimental: as §1

[3] = test system: HAP1 wildtype + JQ12 1 uM (6 h pretreatment)
Experimental: as §1

HAP1 wildtype = test system: HAP1 wildtype
Experimental: as §1

[4] = test system: HAP1 HDAC2 KO + HDAC2 H142A transgene
Experimental: as §1

[5] = test system: HAP1 wildtype + MS-275 1 uM (6 h pretreatment)
Experimental: as §1

[6] = test system: HAP1 HDAC1 KO + HDAC1 H141A transgene
Experimental: as §1

[7] = test system: HAP1 WT + HDAC3 H135A transgene
Experimental: as §1

[8] = test system: HAP1 HDAC3 KO + HDAC3 H135A transgene
Experimental: as §1

Nc1ncn([C@H]2C[C@H](O)[C@@H](CO)O2)c(=O)n1 [decitabine]
cell viability [%]
Conditions | HAP1 HDAC3 KO | HAP1 wildtype | [1] | [2] | [3] | [4] | [5] | [6] | [7] | [8]
0.0309 µM | 96.5 | 104 | 95.3 | 102 | 92.9 | 105.4 | 107 | 106 | 105 | 100
0.0926 µM | 103 | 96.6 | 96.2 | 109 | 98 | 104 | 82.5 | 117 | 117 | 111
0.277777778 µM | 125 | 110 | 68.1 | 80.5 | 72.8 | 89.47 | 71.3 | 93.4 | 116 | 115
0.833333333 µM | 155 | 141 | 27.2 | 44.3 | 50.9 | 37.5 | 40.43 | 51.5 | 153 | 148
2.5 µM | 144 | 115 | -11.5 | 5.61 | 15.9 | 10.8 | 9.68 | 24.3 | 119.46 | 148
7.5 µM | 112 | 60.8 | 0.523 | 4.31 | 1.97 | 5.27 | 9.13 | 0.764 | 49.5 | 96.2
22.5 µM | 123 | 50.1 | -11.1 | 0.159 | 3.44 | -5.41 | 2.79 | 5.07 | 58.5 | 114
67.5 µM | 147 | 47.2 | 1.73 | 7.07 | 1.41 | 9.97 | 10.8 | 19.6 | 61.2 | 108

Cn1cc(-c2ccc(S(=O)(=O)n3ccc(/C=C/C(=O)Nc4ccccc4N)c3)cc2)cn1 [4SC-202]
cell viability [%]
Conditions | HAP1 HDAC3 KO | HAP1 wildtype | [1] | [2] | [3] | [4] | [5] | [6] | [7] | [8]
0.0123 µM | 120 | 105 | 125 | 141 | 123 | 125 | 168 | 137 | 140 | 130
0.037 µM | 95.7 | 88.7 | 85.5 | 78.14 | 113 | 108 | 112 | 106 | 89.7 | 85.68
0.111111111 µM | 127 | 120 | 110 | 135 | 133 | 157 | 121 | 109 | 128 | 109
0.333333333 µM | 122.3 | 98.9 | 117 | 117 | 98.5 | 93.36 | 123 | 111 | 133 | 104
1 µM | 11.2 | 22.3 | -2.58 | -0.0563 | 10.9 | 82.3 | 3.53 | 7.79 | 6.41 | -3.64
3 µM | -10.7 | -0.806 | -21.1 | -10.7 | -3.08 | -4.75 | -1.84 | -53.5 | -13.8 | -11
9 µM | -10.9 | -6.67 | -15.7 | -11.2 | -6.3 | -2.31 | -6.4 | -23.1 | -10.1 | -9.81
27 µM | -5.87 | 2.64 | -7.2 | -5.99 | -3.68 | -4.84 | 0.166 | 14.2 | -6.44 | -4.35

CNC(=O)c1ccccc1Sc1ccc2c(/C=C/c3ccccn3)n[nH]c2c1 [Axitinib]
cell viability [%]
Conditions | HAP1 HDAC3 KO | HAP1 wildtype | [1] | [2] | [3] | [4] | [5] | [6] | [7] | [8]
0.0123 µM | 120 | 119 | 105 | 130 | 106 | 113 | 114 | 112 | 114 | 121
0.037 µM | 99.1 | 95.8 | 90.6 | 82.1 | 76.9 | 94 | 92.3 | 94.3 | 90.2 | 87
0.111111111 µM | 87.1 | 121 | 93.5 | 88.7 | 82.1 | 86.6 | 93.5 | 93 | 96.9 | 94
0.333333333 µM | 102 | 102 | 94.8 | 101 | 109 | 107 | 101 | 84.5 | 121 | 101
1 µM | 172 | 115 | 121 | 140 | 102 | 137 | 113 | 155 | 147 | 129
3 µM | 48.9 | 72 | 21.8 | 46.4 | 57.83 | 23.4 | 67.8 | 54 | 88.11 | 34.8
9 µM | 79.4 | 62 | 5.34 | 16.3 | 48.6 | -0.112 | 52.5 | 26.6 | 101 | 36.3
27 µM | 50.5 | 92.3 | 25.9 | 46.8 | 72.2 | 27.5 | 65.8 | 36 | 102 | 50.1

COc1cc(Nc2ncc3c(n2)-c2ccc(Cl)cc2C(c2c(F)cccc2OC)=NC3)ccc1C(=O)O [Alisertib]
cell viability [%]
Conditions | HAP1 HDAC3 KO | HAP1 wildtype | [1] | [2] | [3] | [4] | [5] | [6] | [7] | [8]
0.00617 µM | 94.9 | 103 | 101 | 86.2 | 79.6 | 103 | 107 | 95.2 | 92.9 | 103
0.0185 µM | 131 | 136 | 95.7 | 115 | 100 | 92.1 | 128 | 122 | 103 | 121
0.0556 µM | 117 | 100 | 95.2 | 99.5 | 95.3 | 103 | 108 | 109 | 123 | 112
0.166666667 µM | 70 | 110 | 71.2 | 62.6 | 34.2 | 31.8 | 43.2 | 52.1 | 147 | 70.2
0.5 µM | 111 | 96.5 | 37.1 | 49.8 | 51.9 | 51 | 72.44 | 53.3 | 105 | 79.4
1.5 µM | 114 | 83.2 | 15.1 | 21.9 | 51.7 | 54.5 | 61.6 | 38.4 | 101 | 82.3
4.5 µM | 103 | 74.2 | 22.1 | 17.5 | 54.4 | 36.2 | 53.2 | 33.1 | 90.6 | 71.6
13.5 µM | 116 | 73.4 | 2.6 | 12.7 | 52 | 21.8 | 46.8 | 19.6 | 108 | 89
